The values below come from ChEMBL document CHEMBL1146982, “Alpha-methylated derivatives of 2-arachidonoyl glycerol: synthesis, CB1 receptor activity, and enzymatic stability” (Bioorg Med Chem Lett, 2006).

Active and inactive are the calls of the source. The rule behind the calls is not given here.

Holding throughout (format): functional, tissue-based
For one experiment, the target named is Cannabinoid receptor 1 (Rattus norvegicus, UniProt P20272). Description: Potency at CB1 receptor in rat brain by [35S]GTP-gamma-S binding assay.
Experiment [1] addresses Cannabinoid receptor 1 (Rattus norvegicus) (UniProt P20272). Briefly: Efficacy at CB1 receptor in rat brain by [35S]GTPgammaS binding assay (basal value set at 100%). Background: GTPγS is a poorly hydrolysed GTP analogue; its binding reports G protein activation.
For experiment [2] the target is unchanged. Briefly: Efficacy at CB1 receptor in rat brain by [35S]GTP-gamma-S binding assay at 0.1 mM (basal value set at 100%).
For experiment [3] the target is unchanged. Description: Potency at CB1 receptor in rat brain by [35S]GTP-gamma-S binding assay at 0.1 mM.

Sequence of Cannabinoid receptor 1 (Rattus norvegicus) (P20272 whole entry): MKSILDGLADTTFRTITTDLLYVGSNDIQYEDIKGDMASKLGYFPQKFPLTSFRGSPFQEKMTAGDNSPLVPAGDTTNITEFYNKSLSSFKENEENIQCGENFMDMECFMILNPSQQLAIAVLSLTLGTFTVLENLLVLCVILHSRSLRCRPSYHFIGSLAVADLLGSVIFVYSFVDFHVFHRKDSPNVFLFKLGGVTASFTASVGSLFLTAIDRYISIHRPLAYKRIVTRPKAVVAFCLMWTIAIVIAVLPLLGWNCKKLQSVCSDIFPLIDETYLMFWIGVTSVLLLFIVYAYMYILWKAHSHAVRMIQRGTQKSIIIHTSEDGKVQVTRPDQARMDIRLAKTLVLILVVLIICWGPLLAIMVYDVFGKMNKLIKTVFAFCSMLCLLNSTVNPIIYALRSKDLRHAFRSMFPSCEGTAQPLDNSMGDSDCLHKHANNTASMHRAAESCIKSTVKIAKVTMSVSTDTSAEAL
Sequence of Cannabinoid receptor 1 (P20272 whole entry): as above

`CCCCC/C=C\C/C=C\C/C=C\C/C=C\CC[C@@H](C)C(=O)OC(CO)CF` (mixture of isomers): the EC50 – broadly, the midpoint of the concentration-response curve – at Cannabinoid receptor 1 is 15.8 µM. For the same compound, in experiment [1], the maximal effect (Emax) (usually the size of the effect at its maximum, as opposed to the concentration needed) amounted to 168%.

`CCCCC/C=C\C/C=C\C/C=C\C/C=C\CCCC(=O)OC(CO)CO` came in with an Emax in experiment [1] of 620%.

With `CCCCC/C=C\C/C=C\C/C=C\C/C=C\CC[C@@H](C)C(=O)OC(CO)CO`, on Cannabinoid receptor 1, the EC50 is 10 µM. The same compound registered an Emax in experiment [1] of 407%.

The compound `CCCCC/C=C\C/C=C\C/C=C\C/C=C\CC[C@H](C)C(=O)OC(CO)CO` had an EC50 on Cannabinoid receptor 1 of 15.8 µM. The Emax in experiment [1] was 227%.

Regarding `CCCCC/C=C\C/C=C\C/C=C\C/C=C\CC[C@@H](C)C(=O)OC(CF)CF`, the Emax entry in experiment [2] is “inactive”. In addition, the “Log EC50” value in experiment [3] was “inactive”.
